Source: US20250113823A1, “Arthropod Control Compositions” (priority 2022, published 2025)
Where two headings read alike, the source gives them in different places.

System: Aedes aegypti
Test: Warm Body assay, mosquito landings on treated warm body
Assay type: in vivo
Settings: for pest or weed control at 3.2 µg/mL / pest or weed control at 7.1 µg/mL / pest or weed control at 16 µg/mL / pest or weed control at 35.7 µg/mL / pest or weed control at 53 µg/mL / pest or weed control at 80 µg/mL / pest or weed control at 119 µg/mL / pest or weed control at 178 µg/mL / pest or weed control at 267 µg/mL / pest or weed control at 400 µg/mL / pest or weed control at 598 µg/mL / pest or weed control at 890 µg/mL / pest or weed control at 2000 µg/mL / pest or weed control at 4470 µg/mL / pest or weed control at 10000 µg/mL / pest or weed control at 1 % / pest or weed control at 0.0016 % / pest or weed control at 0.04 %: Aedes aegypti; for pest or weed control at 3.2 µg/mL: 0.0032 mg/mL (Table 1); for pest or weed control at 3.2 µg/mL / pest or weed control at 7.1 µg/mL / pest or weed control at 16 µg/mL / pest or weed control at 35.7 µg/mL / pest or weed control at 53 µg/mL / pest or weed control at 80 µg/mL / pest or weed control at 119 µg/mL / pest or weed control at 178 µg/mL / pest or weed control at 267 µg/mL / pest or weed control at 400 µg/mL / pest or weed control at 598 µg/mL / pest or weed control at 890 µg/mL / pest or weed control at 2000 µg/mL / pest or weed control at 4470 µg/mL / pest or weed control at 10000 µg/mL: read-out: Percentage of repellence of mosquitoes Aedes aegypti landing on the warm body; for pest or weed control at 7.1 µg/mL: 0.0071 mg/mL (Table 1); for pest or weed control at 35.7 µg/mL: 0.0357 mg/mL (Table 1); for pest or weed control at 53 µg/mL: 0.053 mg/mL (Table 1); for pest or weed control at 80 µg/mL: 0.08 mg/mL (Table 1); for pest or weed control at 119 µg/mL: 0.119 mg/mL (Table 1); for pest or weed control at 178 µg/mL: 0.178 mg/mL (Table 1); for pest or weed control at 267 µg/mL: 0.267 mg/mL (Table 1); for pest or weed control at 598 µg/mL: 0.598 mg/mL (Table 1); for pest or weed control at 890 µg/mL: 0.89 mg/mL (Table 1); for pest or weed control at 2000 µg/mL: 2 mg/mL (Table 1); for pest or weed control at 4470 µg/mL: 4.47 mg/mL (Table 1); for pest or weed control at 1 %: highest tested concentration, 1% (Table 3); for pest or weed control at 1 % / pest or weed control at 0.04 %: read-out: repellence; for pest or weed control at 0.0016 %: read-out: reduce the number of mosquito landings; for pest or weed control at 0.04 %: intermediate concentration of 0.04% (Table 3)
Protocol: The arthropod controlling effect according to the present invention is determined on mosquitoes using an adapted Warm Body assay as defined in Kröber T, Kessler S, Frei J, Bourquin M, Guerin PM. An in vitro assay for testing mosquito controlling compounds employing a warm body and carbon dioxide as a behavioral activator. J Am Mosq Control Assoc. 2010; 26: 381-386. Further information is provided in the accompanying examples
The controlling effect, repellence & spatial repellence, according to the present invention is determined by testing the Warm Body assay against the yellow fever mosquito, Aedes aegypti Rockefeller strain. […] Observations of controlling efficacy were made on host-seeking females of uniform age, 5 to 10 days old selected as mentioned in the publication mentioned hereinabove. Tested hungry females had access to 10% sugar solution but were not blood-fed. Further information is provided in the accompanying examples.
The published protocol has been adapted in not manually counting the landing mosquitoes but automatically using an automatic counting software, the switch from Anopheles gambiae to A. aegypti led to a decrease of mosquitoes' number placed in the tested cage due to the size difference (i.e. 30 mosquitoes instead of 50) and to an increase of lighting as A. aegypti is a diurnal mosquitoes (i.e. 150 lux instead of 4 lux). Further information is provided in the accompanying examples. […]
The controlling effect according to the present invention was assessed using an adapted Warm Body assay as defined in Kröber T, Kessler S, Frei J, Bourquin M, Guerin P M. 2010. J Am Mosq Control Assoc. 26: 381-386. In this in-vitro assay the number of mosquito landing on a warm body, simulating an attractive host treated with the tested stimuli, was measured in order to assess the repellence effect.
The published protocol has been adapted as the switch from Anopheles gambiae to Aedes aegypti led to a decrease of mosquitoes placed in the tested cage due to the size difference (i.e. 30 mosquitoes instead of 50) and to an increase of lighting since A. aegypti is a diurnal mosquitoes (i.e. 150 lux instead of 4 lux).
On the sandblasted glass Petri dish covering the warm body (28.3 cm^2), 100 μL of the compounds diluted at different concentrations in ethanol was applied. The number of mosquito landing on the warm body was counted for each stimulus and pure ethanol (solvent) as control.

[1] = lowest concentration of 0.0016% (Table 3)

CC=Cc1cc(OC)c(O)c(OC)c1 [compound 1124, 2,6-dimethoxy-4-[prop-1-enyl]phenol]
pest or weed control at 3.2 µg/mL: 26%
pest or weed control at 7.1 µg/mL: 40%
pest or weed control at 16 µg/mL (0.016 mg/mL (Table 1)): 62%
pest or weed control at 35.7 µg/mL: 0%
pest or weed control at 53 µg/mL: 48%
pest or weed control at 80 µg/mL: 84%
pest or weed control at 119 µg/mL: 35%
pest or weed control at 178 µg/mL: 66%
pest or weed control at 267 µg/mL: 59%
pest or weed control at 400 µg/mL (0.4 mg/mL (Table 1)): 78%
pest or weed control at 598 µg/mL: 69%
pest or weed control at 890 µg/mL: 78%
pest or weed control at 2000 µg/mL: 95%
pest or weed control at 4470 µg/mL: 85%
pest or weed control at 10000 µg/mL (10 mg/mL (Table 1)): 98%

COc1ccc2ccc(=O)oc2c1O [compound 1551, 8-hydroxy-7-methoxychromen-2-one]
pest or weed control at 16 µg/mL (0.016 mg/mL (Table 3)): 55%
pest or weed control at 400 µg/mL (0.4 mg/mL (Table 3)): 42%
pest or weed control at 10000 µg/mL (10 mg/mL (Table 3)): 91%
pest or weed control at 1 %: > 90%
pest or weed control at 0.0016 % [1]: > 50%

COc1cccc(CO)c1OC [compound 2263, (2,3-dimethoxyphenyl)methanol]
pest or weed control at 16 µg/mL (0.016 mg/mL (Table 3)): 52%
pest or weed control at 400 µg/mL (0.4 mg/mL (Table 3)): 96%
pest or weed control at 10000 µg/mL (10 mg/mL (Table 3)): 97%
pest or weed control at 1 %: > 90%
pest or weed control at 0.04 %: > 75%
pest or weed control at 0.0016 % [1]: > 50%

COc1cc(C=CC(=O)O)cc(OC)c1O [compound 1553, 3-(4-hydroxy-3,5-dimethoxyphenyl)prop-2-enoic acid]
pest or weed control at 16 µg/mL (0.016 mg/mL (Table 3)): 60%
pest or weed control at 400 µg/mL (0.4 mg/mL (Table 3)): 85%
pest or weed control at 10000 µg/mL (10 mg/mL (Table 3)): 43%
pest or weed control at 0.04 %: > 75%
pest or weed control at 0.0016 % [1]: > 50%

CCOc1cc(C=O)ccc1OC(=O)C(C)C [compound 1469, (2-ethoxy-4-formylphenyl) 2-methylpropanoate]
pest or weed control at 16 µg/mL (0.016 mg/mL (Table 3)): 64%
pest or weed control at 400 µg/mL (0.4 mg/mL (Table 3)): 65%
pest or weed control at 10000 µg/mL (10 mg/mL (Table 3)): 95%
pest or weed control at 1 %: > 90%
pest or weed control at 0.0016 % [1]: > 50%

COc1cc(C=NCCN=Cc2cc(OC)c(OC)c(OC)c2)cc(OC)c1OC [compound 1980, 1-(3,4,5-trimethoxyphenyl)-N-[2-[(3,4,5-trimethoxyphenyl)methylideneamino]ethyl]methanimine]
pest or weed control at 3.2 µg/mL: 53%
pest or weed control at 7.1 µg/mL: 57%
pest or weed control at 16 µg/mL (0.016 mg/mL (Table 1)): 34%
pest or weed control at 35.7 µg/mL: 32%
pest or weed control at 53 µg/mL: 77%
pest or weed control at 80 µg/mL: 92%
pest or weed control at 119 µg/mL: 75%
pest or weed control at 178 µg/mL: 67%
pest or weed control at 267 µg/mL: 84%
pest or weed control at 400 µg/mL (0.4 mg/mL (Table 1)): 81%
pest or weed control at 598 µg/mL: 88%
pest or weed control at 890 µg/mL: 63%
pest or weed control at 2000 µg/mL: 86%
pest or weed control at 4470 µg/mL: 71%
pest or weed control at 10000 µg/mL (10 mg/mL (Table 1)): 96%

CCCc1ccc2c(c1)OCC(=O)CO2 [compound 465, 7-propyl-1,5-benzoodioxepin-3-one]
Percentage of repellence of mosquitoes Aedes aegypti landing on the warm body (0.016 mg/mL (Table 3)): 4%
Percentage of repellence of mosquitoes Aedes aegypti landing on the warm body (0.4 mg/mL (Table 3)): 36%
Percentage of repellence of mosquitoes Aedes aegypti landing on the warm body (10 mg/mL (Table 3)): 87%

COc1cccc(OC)c1O [compound 2244, 2,6-dimethoxyphenol]
pest or weed control at 16 µg/mL (0.016 mg/mL (Table 3)): 44%
pest or weed control at 400 µg/mL (0.4 mg/mL (Table 3)): 59%
pest or weed control at 10000 µg/mL (10 mg/mL (Table 3)): 85%

C=CC(C)CCCC(C)(C)OCC=Cc1ccc(O)c(OC)c1 (centres unmarked) [compound 1519, 4-{3-[(2,6-dimethyl-7-octen-2-yl)oxy]-1-propen-1-yl}-2-methoxyphenol]
pest or weed control at 16 µg/mL (0.016 mg/mL (Table 3)): 67%
pest or weed control at 400 µg/mL (0.4 mg/mL (Table 3)): 71%
pest or weed control at 10000 µg/mL (10 mg/mL (Table 3)): 95%
pest or weed control at 1 %: > 90%
pest or weed control at 0.0016 % [1]: > 50%

COc1cc(CC(=O)O)ccc1O [compound 1567, 2-(4-hydroxy-3-methoxyphenyl)acetic acid]
pest or weed control at 16 µg/mL (0.016 mg/mL (Table 3)): 54%
pest or weed control at 400 µg/mL (0.4 mg/mL (Table 3)): 86%
pest or weed control at 10000 µg/mL (10 mg/mL (Table 3)): 98%
pest or weed control at 1 %: > 90%
pest or weed control at 0.04 %: > 75%
pest or weed control at 0.0016 %: > 50%

COc1cc(C=CCOC(C)=O)cc(OC)c1OC [compound 2247, 3-(3,4,5-trimethoxyphenyl)-2-acetate]
Percentage of repellence of mosquitoes Aedes aegypti landing on the warm body (0.016 mg/mL (Table 3)): 39%
Percentage of repellence of mosquitoes Aedes aegypti landing on the warm body (0.4 mg/mL (Table 3)): 44%
Percentage of repellence of mosquitoes Aedes aegypti landing on the warm body (10 mg/mL (Table 3)): 98%

COc1cc(C2CC=C(C)CO2)ccc1O (centres unmarked) [compound 1478, 2-methoxy-4-(5-methyl-3,6-dihydro-2H-pyran-2-yl)phenol]
pest or weed control at 16 µg/mL (0.016 mg/mL (Table 3)): 0%
pest or weed control at 400 µg/mL (0.4 mg/mL (Table 3)): 76%
pest or weed control at 10000 µg/mL (10 mg/mL (Table 3)): 73%
pest or weed control at 0.04 %: > 75%

COc1ccc(C#N)c(OC)c1OC [compound 2266, 2,3,4-trimethoxybenzonitrile]
pest or weed control at 16 µg/mL (0.016 mg/mL (Table 3)): 48%
pest or weed control at 400 µg/mL (0.4 mg/mL (Table 3)): 83%
pest or weed control at 10000 µg/mL (10 mg/mL (Table 3)): 89%
pest or weed control at 0.04 %: > 75%

CC=Cc1cc(OC)c(OC)c(OC)c1 [compound 1123, 1,2,3-trimethoxy-5-[1-propen-1-yl]benzene]
pest or weed control at 3.2 µg/mL: 28%
pest or weed control at 7.1 µg/mL: 10%
pest or weed control at 16 µg/mL (0.016 mg/mL (Table 1)): 63%
pest or weed control at 35.7 µg/mL: 45%
pest or weed control at 53 µg/mL: 81%
pest or weed control at 80 µg/mL: 67%
pest or weed control at 119 µg/mL: 71%
pest or weed control at 178 µg/mL: 83%
pest or weed control at 267 µg/mL: 90%
pest or weed control at 400 µg/mL (0.4 mg/mL (Table 1)): 91%
pest or weed control at 598 µg/mL: 95%
pest or weed control at 890 µg/mL: 90%
pest or weed control at 2000 µg/mL: 98%
pest or weed control at 4470 µg/mL: 100%
pest or weed control at 10000 µg/mL (10 mg/mL (Table 1)): 98%

COc1cc(C(=O)O)cc(OC)c1O [compound 2270, 4-hydroxy-3,5-dimethoxybenzoic acid]
pest or weed control at 16 µg/mL (0.016 mg/mL (Table 3)): 67%
pest or weed control at 400 µg/mL (0.4 mg/mL (Table 3)): 62%
pest or weed control at 10000 µg/mL (10 mg/mL (Table 3)): 87%
pest or weed control at 0.0016 % [1]: > 50%
